Organism: Rattus norvegicus
Test: DrugMatrix - Regimen: Daily Repeat
Type: toxicity, organism-based, Sprague-Dawley
Parameters: regimen Daily Repeat, gender Male, age 6-8 weeks
Conditions: in vivo, po, route oral GAVAGE, vehicle .5 % CMC; for ALANINE AMINOTRANSFERASE / ALBUMIN / ALKALINE PHOSPHATASE / ASPARTATE AMINOTRANSFERASE / BLOOD UREA NITROGEN / CHLORIDE / CHOLESTEROL / CREATINE PHOSPHOKINASE / CREATININE / GLUCOSE / LACTATE DEHYDROGENASE / LIPASE / PHOSPHORUS / POTASSIUM / SODIUM / TOTAL BILIRUBIN / TOTAL PROTEIN / URIC ACID: tissue Plasma
[1] = 80 mg/kg, 2184 h, tissue Blood, dose level Low, time 91 day
[2] = 80 mg/kg, 2184 h, dose level Low, time 91 day
[3] = 80 mg/kg, […], tissue Blood, dose level Low, time 28 day
[4] = 80 mg/kg, […], dose level Low, time 28 day
[5] = 150 mg/kg, 72 h, tissue Blood, dose level M1, time 3 day
[6] = 150 mg/kg, 72 h, dose level M1, time 3 day
[7] = 150 mg/kg, 120 h, tissue Blood, dose level M1, time 5 day
[8] = 150 mg/kg, 120 h, dose level M1, time 5 day
[9] = 1500 mg/kg, 72 h, tissue Blood, dose level High, time 3 day
[10] = 1500 mg/kg, 72 h, dose level High, time 3 day
[11] = 1500 mg/kg, 120 h, tissue Blood, dose level High, time 5 day
[12] = 1500 mg/kg, 120 h, dose level High, time 5 day

SMILES: O=c1cc(-c2ccccc2)oc2ccc3ccccc3c12 [BETA-NAPHTHOFLAVONE]
- EOSINOPHIL [1]: 0.76%
- ERYTHROCYTE COUNT [1]: 8.94 x10E6/uL
- HEMATOCRIT [1]: 47.57%
- HEMOGLOBIN [1]: 15.76 G/DL
- LEUKOCYTE COUNT [1]: 15.13 x10E3/uL
- LYMPHOCYTE [1]: 74.26%
- MEAN CORPUSCULAR HEMOGLOBIN [1]: 17.63 pg
- MEAN CORPUSCULAR HEMOGLOBIN CONCENTRATION [1]: 33.13 G/DL
- MEAN CORPUSCULAR VOLUME [1]: 53.23 fL
- MONOCYTE [1]: 1.9%
- NEUTROPHIL [1]: 20.01%
- PLATELET COUNT [1]: 1247.3 x10E3/uL
- ALANINE AMINOTRANSFERASE [2]: 27.5 u/L
- ALBUMIN [2]: 3.68 G/DL
- ALKALINE PHOSPHATASE [2]: 82.2 u/L
- ASPARTATE AMINOTRANSFERASE [2]: 64.9 u/L
- BLOOD UREA NITROGEN [2]: 15.3 mg/dL
- CHLORIDE [2]: 104 MEQ/L
- CHOLESTEROL [2]: 68.4 mg/dL
- CREATINE PHOSPHOKINASE [2]: 81.3 u/L
- CREATININE [2]: 0.51 mg/dL
- GLUCOSE [2]: 148 mg/dL
- LACTATE DEHYDROGENASE [2]: 43.4 u/L
- LIPASE [2]: 20.6 u/L
- PHOSPHORUS [2]: 8.24 mg/dL
- POTASSIUM [2]: 6.5 MEQ/L
- SODIUM [2]: 150 MEQ/L
- TOTAL BILIRUBIN [2]: 0.21 mg/dL
- TOTAL PROTEIN [2]: 7.08 G/DL
- URIC ACID [2]: 0.93 mg/dL
- ABSOLUTE BASOPHIL [3]: 190 cells/µL
- ABSOLUTE EOSINOPHIL [3]: 60 cells/µL
- ABSOLUTE LYMPHOCYTE [3]: 13200 cells/µL
- ABSOLUTE MONOCYTE [3]: 300 cells/µL
- ABSOLUTE SEGMENTED NEUTROPHIL [3]: 1910 cells/µL
- BASOPHIL [3]: 1.18%
- EOSINOPHIL [3]: 0.36%
- ERYTHROCYTE COUNT [3]: 8.59 x10E6/uL
- HEMATOCRIT [3]: 48.64%
- HEMOGLOBIN [3]: 16.08 G/DL
- LEUKOCYTE COUNT [3]: 15.78 x10E3/uL
- LYMPHOCYTE [3]: 83.98%
- MEAN CORPUSCULAR HEMOGLOBIN [3]: 18.78 pg
- MEAN CORPUSCULAR HEMOGLOBIN CONCENTRATION [3]: 33.1 G/DL
- MEAN CORPUSCULAR VOLUME [3]: 56.7 fL
- MONOCYTE [3]: 1.92%
- NEUTROPHIL [3]: 12%
- PLATELET COUNT [3]: 1252.8 x10E3/uL
- ALANINE AMINOTRANSFERASE [4]: 30.4 u/L
- ALBUMIN [4]: 3.64 G/DL
- ALKALINE PHOSPHATASE [4]: 126 u/L
- ASPARTATE AMINOTRANSFERASE [4]: 71.4 u/L
- BLOOD UREA NITROGEN [4]: 13.4 mg/dL
- CHLORIDE [4]: 103.4 MEQ/L
- CHOLESTEROL [4]: 69.8 mg/dL
- CREATINE PHOSPHOKINASE [4]: 116.2 u/L
- CREATININE [4]: 0.48 mg/dL
- GLUCOSE [4]: 156.6 mg/dL
- LACTATE DEHYDROGENASE [4]: 80.8 u/L
- LIPASE [4]: 13 u/L
- PHOSPHORUS [4]: 9.74 mg/dL
- POTASSIUM [4]: 6.34 MEQ/L
- SODIUM [4]: 149.8 MEQ/L
- TOTAL BILIRUBIN [4]: 0.24 mg/dL
- TOTAL PROTEIN [4]: 6.58 G/DL
- URIC ACID [4]: 0.58 mg/dL
- BASOPHIL [5]: 0.43%
- EOSINOPHIL [5]: 0.3%
- ERYTHROCYTE COUNT [5]: 6.69 x10E6/uL
- HEMATOCRIT [5]: 42.2%
- HEMOGLOBIN [5]: 13.2 G/DL
- LEUKOCYTE COUNT [5]: 11.3 x10E3/uL
- LYMPHOCYTE [5]: 85.87%
- MEAN CORPUSCULAR HEMOGLOBIN [5]: 19.73 pg
- MEAN CORPUSCULAR HEMOGLOBIN CONCENTRATION [5]: 31.23 G/DL
- MEAN CORPUSCULAR VOLUME [5]: 63.13 fL
- MONOCYTE [5]: 2.17%
- NEUTROPHIL [5]: 10.17%
- PLATELET COUNT [5]: 1377.33 x10E3/uL
- ALANINE AMINOTRANSFERASE [6]: 41.33 u/L
- ALBUMIN [6]: 3.57 G/DL
- ALKALINE PHOSPHATASE [6]: 337.33 u/L
- ASPARTATE AMINOTRANSFERASE [6]: 68.33 u/L
- BLOOD UREA NITROGEN [6]: 13 mg/dL
- CHLORIDE [6]: 103.33 MEQ/L
- CHOLESTEROL [6]: 100 mg/dL
- CREATINE PHOSPHOKINASE [6]: 163.67 u/L
- CREATININE [6]: 0.4 mg/dL
- GLUCOSE [6]: 179 mg/dL
- PHOSPHORUS [6]: 12.8 mg/dL
- POTASSIUM [6]: 6.93 MEQ/L
- SODIUM [6]: 148.33 MEQ/L
- TOTAL BILIRUBIN [6]: 0.4 mg/dL
- TOTAL PROTEIN [6]: 5.97 G/DL
- BASOPHIL [7]: 0.37%
- EOSINOPHIL [7]: 0.43%
- ERYTHROCYTE COUNT [7]: 7.05 x10E6/uL
- HEMATOCRIT [7]: 42.83%
- HEMOGLOBIN [7]: 13.57 G/DL
- LEUKOCYTE COUNT [7]: 14.17 x10E3/uL
- LYMPHOCYTE [7]: 88.67%
- MEAN CORPUSCULAR HEMOGLOBIN [7]: 19.27 pg
- MEAN CORPUSCULAR HEMOGLOBIN CONCENTRATION [7]: 31.67 G/DL
- MEAN CORPUSCULAR VOLUME [7]: 60.87 fL
- MONOCYTE [7]: 1.77%
- NEUTROPHIL [7]: 7.87%
- PLATELET COUNT [7]: 1364.33 x10E3/uL
- ALANINE AMINOTRANSFERASE [8]: 42.67 u/L
- ALBUMIN [8]: 3.6 G/DL
- ALKALINE PHOSPHATASE [8]: 295 u/L
- ASPARTATE AMINOTRANSFERASE [8]: 69.33 u/L
- BLOOD UREA NITROGEN [8]: 14 mg/dL
- CHLORIDE [8]: 104 MEQ/L
- CHOLESTEROL [8]: 99 mg/dL
- CREATINE PHOSPHOKINASE [8]: 224.33 u/L
- CREATININE [8]: 0.47 mg/dL
- GLUCOSE [8]: 169 mg/dL
- PHOSPHORUS [8]: 12.43 mg/dL
- POTASSIUM [8]: 6.6 MEQ/L
- SODIUM [8]: 147 MEQ/L
- TOTAL BILIRUBIN [8]: 0.57 mg/dL
- TOTAL PROTEIN [8]: 6 G/DL
- BASOPHIL [9]: 0.4%
- EOSINOPHIL [9]: 0.7%
- ERYTHROCYTE COUNT [9]: 7.11 x10E6/uL
- HEMATOCRIT [9]: 44.17%
- HEMOGLOBIN [9]: 13.9 G/DL
- LEUKOCYTE COUNT [9]: 12.26 x10E3/uL
- LYMPHOCYTE [9]: 82.2%
- MEAN CORPUSCULAR HEMOGLOBIN [9]: 19.53 pg
- MEAN CORPUSCULAR HEMOGLOBIN CONCENTRATION [9]: 31.47 G/DL
- MEAN CORPUSCULAR VOLUME [9]: 62.13 fL
- MONOCYTE [9]: 2.5%
- NEUTROPHIL [9]: 13.1%
- PLATELET COUNT [9]: 1171.33 x10E3/uL
- ALANINE AMINOTRANSFERASE [10]: 37 u/L
- ALBUMIN [10]: 3.53 G/DL
- ALKALINE PHOSPHATASE [10]: 263.67 u/L
- ASPARTATE AMINOTRANSFERASE [10]: 61.67 u/L
- BLOOD UREA NITROGEN [10]: 11.67 mg/dL
- CHLORIDE [10]: 103.33 MEQ/L
- CHOLESTEROL [10]: 122.33 mg/dL
- CREATINE PHOSPHOKINASE [10]: 219.67 u/L
- CREATININE [10]: 0.4 mg/dL
- GLUCOSE [10]: 175.67 mg/dL
- PHOSPHORUS [10]: 13.27 mg/dL
- POTASSIUM [10]: 7 MEQ/L
- SODIUM [10]: 145.33 MEQ/L
- TOTAL BILIRUBIN [10]: 0.47 mg/dL
- TOTAL PROTEIN [10]: 5.9 G/DL
- BASOPHIL [11]: 0.43%
- EOSINOPHIL [11]: 0.17%
- ERYTHROCYTE COUNT [11]: 6.8 x10E6/uL
- HEMATOCRIT [11]: 42.73%
- HEMOGLOBIN [11]: 13.33 G/DL
- LEUKOCYTE COUNT [11]: 11.39 x10E3/uL
- LYMPHOCYTE [11]: 85.5%
- MEAN CORPUSCULAR HEMOGLOBIN [11]: 19.63 pg
- MEAN CORPUSCULAR HEMOGLOBIN CONCENTRATION [11]: 31.3 G/DL
- MEAN CORPUSCULAR VOLUME [11]: 62.77 fL
- MONOCYTE [11]: 1.77%
- NEUTROPHIL [11]: 11.33%
- PLATELET COUNT [11]: 1352 x10E3/uL
- ALANINE AMINOTRANSFERASE [12]: 37.67 u/L
- ALBUMIN [12]: 3.6 G/DL
- ALKALINE PHOSPHATASE [12]: 289 u/L
- ASPARTATE AMINOTRANSFERASE [12]: 66.67 u/L
- BLOOD UREA NITROGEN [12]: 12.67 mg/dL
- CHLORIDE [12]: 102.33 MEQ/L
- CHOLESTEROL [12]: 101.33 mg/dL
- CREATINE PHOSPHOKINASE [12]: 145 u/L
- CREATININE [12]: 0.33 mg/dL
- GLUCOSE [12]: 186 mg/dL
- PHOSPHORUS [12]: 13.3 mg/dL
- POTASSIUM [12]: 6.73 MEQ/L
- SODIUM [12]: 147.67 MEQ/L
- TOTAL BILIRUBIN [12]: 0.27 mg/dL
- TOTAL PROTEIN [12]: 6.1 G/DL

— ChEMBL document CHEMBL3885881, “DrugMatrix”
